Key:
Experiment in all cases: biochemical
Settings in all cases: read-out: CPT-1-70-1 (1uM) % control
EPHA7 = EPHA7 (Homo sapiens, UniProt Q15375)
ERK8 = ERK8 (Homo sapiens, UniProt Q8TD08)
EPHA6 = EPHA6 (Homo sapiens, UniProt Q9UF33)
ALK(L1196M) = ALK(L1196M) (Homo sapiens, UniProt Q9UM73, L1196M)
ALK(L1196M), sequence (Q9UM73 whole entry L1196M): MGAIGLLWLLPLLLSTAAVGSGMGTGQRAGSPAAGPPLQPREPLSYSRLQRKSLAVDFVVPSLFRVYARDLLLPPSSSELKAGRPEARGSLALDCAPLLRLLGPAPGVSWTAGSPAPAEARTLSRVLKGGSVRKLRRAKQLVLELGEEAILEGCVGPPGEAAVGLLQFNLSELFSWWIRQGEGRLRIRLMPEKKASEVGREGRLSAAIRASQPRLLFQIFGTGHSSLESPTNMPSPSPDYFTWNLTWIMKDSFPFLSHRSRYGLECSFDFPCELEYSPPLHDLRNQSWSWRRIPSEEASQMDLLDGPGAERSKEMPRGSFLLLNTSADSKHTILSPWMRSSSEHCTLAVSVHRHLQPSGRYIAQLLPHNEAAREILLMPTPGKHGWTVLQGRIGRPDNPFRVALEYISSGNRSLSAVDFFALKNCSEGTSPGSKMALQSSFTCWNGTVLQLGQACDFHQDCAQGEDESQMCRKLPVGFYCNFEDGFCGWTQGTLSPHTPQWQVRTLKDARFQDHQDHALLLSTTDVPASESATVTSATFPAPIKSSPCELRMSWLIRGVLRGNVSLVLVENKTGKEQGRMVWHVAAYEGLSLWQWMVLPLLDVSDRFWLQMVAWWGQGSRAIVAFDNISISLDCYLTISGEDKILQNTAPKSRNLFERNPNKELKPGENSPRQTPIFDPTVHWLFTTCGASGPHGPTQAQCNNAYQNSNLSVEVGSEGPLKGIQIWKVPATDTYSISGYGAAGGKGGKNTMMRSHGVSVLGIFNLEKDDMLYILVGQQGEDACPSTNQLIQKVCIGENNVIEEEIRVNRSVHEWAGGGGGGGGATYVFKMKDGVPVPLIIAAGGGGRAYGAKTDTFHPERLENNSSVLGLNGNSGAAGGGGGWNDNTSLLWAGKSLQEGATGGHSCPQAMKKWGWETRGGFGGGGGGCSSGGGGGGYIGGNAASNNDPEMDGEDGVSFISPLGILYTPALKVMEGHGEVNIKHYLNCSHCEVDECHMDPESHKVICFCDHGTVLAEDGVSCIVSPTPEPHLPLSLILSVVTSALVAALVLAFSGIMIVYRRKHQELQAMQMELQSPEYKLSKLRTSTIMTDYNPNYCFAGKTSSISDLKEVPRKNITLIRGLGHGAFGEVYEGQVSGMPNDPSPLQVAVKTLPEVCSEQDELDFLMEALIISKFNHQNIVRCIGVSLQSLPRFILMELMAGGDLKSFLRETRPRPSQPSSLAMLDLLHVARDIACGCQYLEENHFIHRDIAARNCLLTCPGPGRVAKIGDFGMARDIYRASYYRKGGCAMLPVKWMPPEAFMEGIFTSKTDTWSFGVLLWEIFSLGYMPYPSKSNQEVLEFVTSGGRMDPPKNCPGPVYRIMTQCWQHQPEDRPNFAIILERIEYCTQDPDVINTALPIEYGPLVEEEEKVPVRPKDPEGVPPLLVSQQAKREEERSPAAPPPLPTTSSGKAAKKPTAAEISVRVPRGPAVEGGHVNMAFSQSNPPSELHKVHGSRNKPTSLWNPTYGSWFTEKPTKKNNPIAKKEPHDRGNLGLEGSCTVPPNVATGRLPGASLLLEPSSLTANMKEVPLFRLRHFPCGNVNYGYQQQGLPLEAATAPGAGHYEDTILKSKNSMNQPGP

EPHA7, sequence (Q15375 whole entry): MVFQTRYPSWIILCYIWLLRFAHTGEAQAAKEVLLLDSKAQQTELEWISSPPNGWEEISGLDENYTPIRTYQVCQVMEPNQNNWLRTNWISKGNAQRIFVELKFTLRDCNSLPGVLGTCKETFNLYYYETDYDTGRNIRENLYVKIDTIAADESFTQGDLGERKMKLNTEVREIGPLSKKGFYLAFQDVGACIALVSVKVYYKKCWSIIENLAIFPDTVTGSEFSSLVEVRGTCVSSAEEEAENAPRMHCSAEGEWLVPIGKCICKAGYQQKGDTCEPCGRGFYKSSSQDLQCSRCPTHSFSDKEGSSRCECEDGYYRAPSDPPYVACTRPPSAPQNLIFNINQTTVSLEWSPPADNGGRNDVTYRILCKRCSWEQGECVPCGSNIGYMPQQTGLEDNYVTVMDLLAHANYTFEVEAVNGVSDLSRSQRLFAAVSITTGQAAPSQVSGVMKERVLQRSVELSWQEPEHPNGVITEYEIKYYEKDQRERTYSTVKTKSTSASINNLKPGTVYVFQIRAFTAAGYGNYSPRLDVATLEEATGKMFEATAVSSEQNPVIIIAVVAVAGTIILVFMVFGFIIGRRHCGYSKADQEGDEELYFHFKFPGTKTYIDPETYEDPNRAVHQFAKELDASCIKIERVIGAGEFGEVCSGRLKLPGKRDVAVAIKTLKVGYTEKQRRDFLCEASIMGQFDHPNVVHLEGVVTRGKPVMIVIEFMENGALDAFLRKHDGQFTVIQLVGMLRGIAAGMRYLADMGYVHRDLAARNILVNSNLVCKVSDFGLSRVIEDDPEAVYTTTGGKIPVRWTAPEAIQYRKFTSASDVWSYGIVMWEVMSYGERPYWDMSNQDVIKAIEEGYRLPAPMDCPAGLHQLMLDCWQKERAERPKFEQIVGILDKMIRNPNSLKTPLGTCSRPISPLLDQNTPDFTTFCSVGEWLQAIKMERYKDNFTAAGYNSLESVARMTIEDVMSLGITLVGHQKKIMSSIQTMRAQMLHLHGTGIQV
EPHA6, sequence (Q9UF33 whole entry): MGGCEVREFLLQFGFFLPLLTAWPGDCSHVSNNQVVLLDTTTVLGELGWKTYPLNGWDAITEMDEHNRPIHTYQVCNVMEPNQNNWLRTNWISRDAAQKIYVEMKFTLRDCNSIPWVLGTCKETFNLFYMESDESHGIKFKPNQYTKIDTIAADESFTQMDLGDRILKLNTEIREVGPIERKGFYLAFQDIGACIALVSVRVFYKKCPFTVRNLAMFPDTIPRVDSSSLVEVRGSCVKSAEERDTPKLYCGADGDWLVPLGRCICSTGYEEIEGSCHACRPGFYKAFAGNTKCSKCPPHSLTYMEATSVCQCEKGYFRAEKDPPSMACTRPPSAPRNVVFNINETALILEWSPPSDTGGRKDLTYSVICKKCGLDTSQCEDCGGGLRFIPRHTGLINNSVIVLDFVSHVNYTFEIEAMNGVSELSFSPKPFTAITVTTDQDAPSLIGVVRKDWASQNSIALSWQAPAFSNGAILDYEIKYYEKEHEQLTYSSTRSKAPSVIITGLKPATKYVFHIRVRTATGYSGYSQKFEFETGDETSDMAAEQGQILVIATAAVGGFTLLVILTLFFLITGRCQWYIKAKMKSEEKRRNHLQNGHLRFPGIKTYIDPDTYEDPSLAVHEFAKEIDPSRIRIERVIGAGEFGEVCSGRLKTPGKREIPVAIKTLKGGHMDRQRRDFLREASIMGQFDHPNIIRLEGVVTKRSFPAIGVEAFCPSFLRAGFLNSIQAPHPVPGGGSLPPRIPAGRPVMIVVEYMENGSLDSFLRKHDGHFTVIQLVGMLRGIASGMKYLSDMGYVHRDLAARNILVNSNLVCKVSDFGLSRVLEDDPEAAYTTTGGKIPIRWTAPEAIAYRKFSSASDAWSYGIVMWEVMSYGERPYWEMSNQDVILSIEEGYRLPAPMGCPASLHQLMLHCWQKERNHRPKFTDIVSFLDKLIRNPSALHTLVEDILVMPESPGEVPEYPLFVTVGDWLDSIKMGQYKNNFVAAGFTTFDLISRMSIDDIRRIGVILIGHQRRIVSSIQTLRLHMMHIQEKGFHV
ERK8, sequence (Q8TD08 whole entry): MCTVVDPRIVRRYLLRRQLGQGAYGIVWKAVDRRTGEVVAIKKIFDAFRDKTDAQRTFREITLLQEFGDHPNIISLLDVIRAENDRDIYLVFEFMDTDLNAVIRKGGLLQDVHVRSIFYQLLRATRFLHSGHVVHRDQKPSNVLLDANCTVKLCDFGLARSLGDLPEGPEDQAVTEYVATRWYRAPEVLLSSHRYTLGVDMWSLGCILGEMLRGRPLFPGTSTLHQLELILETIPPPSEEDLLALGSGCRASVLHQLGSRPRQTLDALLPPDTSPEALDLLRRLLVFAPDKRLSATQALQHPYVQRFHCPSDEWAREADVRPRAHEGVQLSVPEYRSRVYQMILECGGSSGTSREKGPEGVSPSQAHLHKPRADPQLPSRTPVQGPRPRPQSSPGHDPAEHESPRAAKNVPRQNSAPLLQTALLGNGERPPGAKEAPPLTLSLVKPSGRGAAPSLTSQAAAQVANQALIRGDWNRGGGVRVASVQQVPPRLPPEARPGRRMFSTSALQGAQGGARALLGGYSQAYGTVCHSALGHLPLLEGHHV

## CN1CCN(c2ccc(Nc3nc(Oc4ccc(NC(=O)CCl)cc4)c4cc[nH]c4n3)cc2)CC1 [CPT1-70-1]
EPHA7
  remaining activity at 1 µM: 62%
ERK8
  remaining activity at 1 µM: 86%
EPHA6
  remaining activity at 1 µM: 100%
ALK(L1196M)
  remaining activity at 1 µM: 100%

Reference: publication doi:10.1101/2020.06.11.145995v1 (biorxiv, 2020)
